# Values of other authors as cited in patent publication US20260229307A1, “CLEAVED NEOEPITOPES” (IOGENETICS, LLC, priority 2023, published 2026).
# Legend:
# [1] = human muscular dystrophy trial
# [2] = relative to E64
smiles,measurement,setting,value
CCOC(=O)[C@H]1O[C@@H]1C(=O)N[C@@H](CC(C)C)C(=O)NCCC(C)C [aloxistatin],safety in humans,[1],demonstrate the safety
same,cell permeability and adsorption,[2],improved cell permeability and adsorption
